Assay results as given in patent US5852015A, “Triazine containing anionic compounds useful as antiviral agents” (American Cyanamid Company, priority 1997, dated 1998).
“And” between values parts separate entries of the source, which are not always exact repeats. Equal values may be shown once. Where a name gives a salt, the structure may show the parent alone. Read-outs that look alike come from different tables or passages of the source.

Columns and labels:
RSV (A2) [1] = experiment: viral yield reduction assay (growth inhibition), RSV; type: cell-based, human respiratory syncytial virus; settings: 4 days; for IC50: human respiratory syncytial virus, 96 h
Description: (§1) The compounds were tested for biological activity using viral yield reduction assays. Host cells (indicated as HF for human foreskin fibroblasts and as vero, the commonly used African green monkey cell line, in Tables 1 and 1a) were plated at 4×10^4 cells/well in cell growth medium with 2% fetal bovine serum or 2% calf serum in 96-well plates (0.1 ml/well) and incubated overnight. The compounds were added to individual wells to give final concentrations ranging from 50 to 0.1 μg/ml in two-fold concentration steps. After 1 hour, virus was added, and the incubation was continued for 4 days with RSV or CMV and for 2 days with HSV. At the end of the experiment, the amount of virus growth was quantitated and the yield reduction at various concentrations of compound was calculated. This allows estimation of the concentration of compound giving 50% reduction in virus growth (IC50).
(§2) Table 1. Fifty percent inhibitory concentrations for growth inhibition
(§3) (yield reduction) and for plaque formation were determined as described i
(§4) the text. The virus strains used were RSV (A2), CMV (Ad169), HSV1
(§5) (Patton). The host cells used were human foreskin fibroblasts (HF) and […]

RSV (A2) [2] = experiment: viral plaque reduction assay, RSV A2; type: cell-based, human respiratory syncytial virus; settings: Table 1; vero cells
CMV (Ad169) [3] = experiment: viral plaque reduction assay, CMV Ad169; type: cell-based, human cytomegalovirus; settings: Table 1; HF cells
[4] = system: syncytium formation in cells previously infected with RSV; experiment: syncytium formation in RSV-infected vero cells; type: cell-based, African green monkey
Description: This was done by infecting vero cells at a multiplicity of infection of 3 for 1 hour, then replacing the original medium with fresh medium. After 6 hours incubation, compound was added. After 24 and 48 hours, the infected cells were examined under the microscope to determine the extent of syncytium formation. Differences in the extent of syncytium formation due to the presence of compound were easily recognized and the compounds were easily ranked in terms of potency in this assay. The actual IC50's as judged by this method are approximate. They were 0.3 and 0.05 μg/ml for compounds 16 and 17, respectively.

RSV A2 = type: in vivo, cotton rats; settings: for inhibition of RSV in vivo (summary): cotton rats, all experiments of Table 3
viral protein synthesis = viral protein synthesis in infected vero cells (mechanism of action); type: cell-based
Description: The time in the virus life-cycle when Example 1 exerts its effect was determined to increase understanding of the mechanism of action. This was accomplished by adding and removing the compound at various times relative to infection and assessing the effect on viral protein synthesis. Vero cells were infected on ice for 1 hour, unadsorbed virus was removed, and then the infected cells were incubated at 37° C. for 18 hours (virus adsorption will occur on ice, but fusion will not proceed until the temperature is raised to 18° C. or above). After the 18 hour incubation at 37° C. (when the bulk of ongoing protein synthesis was directed by viral RNAs), ^35 S-methionine was added for 2 hours, the cells were lysed, and the labeled proteins were analyzed on SDS-PAGE gels. The viral N, P, and M proteins were then evident. […] However, when the compound of Example 1 was added even after only 5 minutes incubation at 37° C., viral protein production was unimpeded. Therefore, the process inhibited was the fusion process or some closely succeeding step which is required for later viral gene expression.

RSV [5] = type: in vivo, cotton rats; settings: EXPT 3, Lavage/Plaque
RSV [6] = type: in vivo, cotton rats; settings: EXPT 3, Lung/Plaque
CMV (Ad169) [7] = experiment: viral yield reduction assay (growth inhibition), CMV; type: cell-based, human cytomegalovirus; settings: Human betaherpesvirus 5, AD169, 96 h, HF cells, 4 days
Description: as §1, §2, §3, §4, §5

[8] = i.n. d 0 15 mg/k, d 1,2,3 30 mg/k
[9] = EXPT 3, i.n. 30 mg/k d 1,2,3, Lavage/CPE
[10] = EXPT 3, i.n. d 0 15 mg/k, d 1 30 mg/k, Lavage/CPE
[11] = EXPT 3, i.n. d 0 15 mg/k, d 1,2,3 30 mg/k, Lavage/CPE
[12] = EXPT 3, i.p. 30 mg/k d 1,2,3, Lavage/CPE

## 4,4'-Bis[4,6-di[4-amino-N'-[3-aminophenyl-N,N-bis(2-hydroxyethyl)sulfonylimino]-benzensulfoamide]-1,3,5-triazin-2-ylamino]-stilbene-2,2'-disulfonic acid, disodium salt [Example 25]
RSV (A2) [1]; vero cells
  IC50 in growth inhibition RSV/VERO: 30 µg/mL

## 4,4'-Bis[4-chloro-6-di[4-amino-N'-[3-aminophenyl-N,N-bis(2-carbamoylethyl)sulfonylimino]-benzamide]-1,3,5-triazin-2-ylamino]-stilbene-2,2'-disulfonic acid, disodium salt [Example 24]
RSV (A2) [1]; vero cells
  IC50 in growth inhibition RSV/VERO: 50 µg/mL

## 4-[4.6-Di[3-aminophenyl-N,N-bis(2-carbamoylethyl)sulfonylimino]-1,3,5-triazin-2-ylamino]-4'-(4-[3-aminophenyl-N,N-bis(2-carbamoylethyl)sulfonylimino]- 6-[3-aminophenyl-N,N bis(3-propionic acid)-1,3,5-triazin-2-ylamino]-stilbene-2,2'-disulphonic acid, disodium salt [Example 10]
RSV (A2) [1]; HF cells
  IC50 in growth inhibition RSV/HF: < 3 µg/mL
RSV (A2) [1]; vero cells
  IC50 in growth inhibition RSV/VERO: 0.7 µg/mL

## 9.9-Dioxo-2,7-Bis[4,6-di[3-aminophenyl-N,N-bis(2-carbamoylethyl)sulfonylimino]-1,3,5-triazin-2-ylamino]-dibenzothiophen-3.6-disulfonic acid, disodium salt [Example 23]
RSV (A2) [2]
  IC50 in plaque assay RSV/VERO: 8 µg/mL
CMV (Ad169) [3]
  IC50 in plaque assay CMV/HF: 20 µg/mL

## NC(=O)CCN(CCC(N)=O)S(=O)(=O)c1cccc(Nc2nc(Nc3cccc(S(=O)(=O)N(CCC(N)=O)CCC(N)=O)c3)nc(Nc3ccc(/C=C/c4ccc(Nc5nc(Nc6cccc(S(=O)(=O)N(CCC(N)=O)CCC(N)=O)c6)nc(Nc6cccc(S(=O)(=O)N(CCC(N)=O)CCC(N)=O)c6)n5)cc4S(=O)(=O)O)c(S(=O)(=O)O)c3)n2)c1 [Example 1, 4,4'-Bis[4.6-di[3-aminophenyl-N,N-bis(2-carbamoyl-ethyl)sulfonylimino]-1,3,5-triazin-2-ylamino]-stilbene-2,2'-disulfonic acid, disodium salt]
[4]
  inhibition of syncytium formation: inhibit syncytium formation
RSV A2
  inhibition of RSV in vivo (summary): inhibit RSV in vivo
RSV A2; rat, in vivo, disodium salt
  Mean titer: 2.8 log10/g lung and 1.73 log10/g lung and 3.43 log10/g lung
Viral protein synthesis; 10 μg/ml added immediately after virus adsorption and before raising temperature to 37° C.
  viral protein synthesis: fully prevented
Viral protein synthesis; added after only 5 minutes incubation at 37° C.
  viral protein production: unimpeded

## NC(=O)CCN(CCC(N)=O)S(=O)(=O)c1cccc(Nc2nc(Nc3cccc(S(=O)(=O)N(CCC(N)=O)CCC(N)=O)c3)nc(Nc3ccc(-c4ccc(Nc5nc(Nc6cccc(S(=O)(=O)N(CCC(N)=O)CCC(N)=O)c6)nc(Nc6cccc(S(=O)(=O)N(CCC(N)=O)CCC(N)=O)c6)n5)cc4S(=O)(=O)O)c(S(=O)(=O)O)c3)n2)c1 [Example 4, 4,4'-Bis[4,6-di[3-aminophenyl-N,N-bis(2-carbamoyl-ethyl)sulfonylimino]-1,3,5-triazin-2-ylamino]-biphenyl-2,2'-disulfonic acid, disodium salt]
RSV [5]; i.n. 30 mg/k d 1,2,3
  Fold red.: 1.2 log10
  Mean titer: 3.09 log10/g lung
RSV [5]; i.n. d 0 15 mg/k, d 1 30 mg/k
  Fold red.: 2.03 log10
  Mean titer: 2.26 log10/g lung
RSV [5]; [8]
  Fold red.: 2.04 log10
  Mean titer: 2.25 log10/g lung
RSV [5]; i.p. 30 mg/k d 1,2,3
  Fold red.: 0.09 log10
  Mean titer: 4.1 log10/g lung
[4]
  inhibition of syncytium formation: inhibit syncytium formation
RSV A2; [9]
  Fold red.: 2.51 log10
  Mean titer: 1.67 log10/g lung
RSV A2; [10]
  Fold red.: 2.52 log10
  Mean titer: 1.66 log10/g lung
RSV A2; [11]
  Fold red.: 2.13 log10
  Mean titer: 2.05 log10/g lung
RSV A2; [12]
  Fold red.: 0 log10
  Mean titer: 4.18 log10/g lung
RSV A2
  inhibition of RSV in vivo (summary): inhibit RSV in vivo
RSV A2; rat, in vivo
  Fold red.: 1.63 log10
  Mean titer: 2.05 log10/g lung
RSV [6]; i.n. 30 mg/k d 1,2,3
  Fold red.: 1.18 log10
  Mean titer: 3.37 log10/g lung
RSV [6]; i.n. d 0 15 mg/k, d 1 30 mg/k
  Fold red.: 2.23 log10
  Mean titer: 2.32 log10/g lung
RSV [6]; [8]
  Fold red.: 2.3 log10
  Mean titer: 2.25 log10/g lung
RSV [6]; i.p. 30 mg/k d 1,2,3
  Fold red.: 0.26 log10
  Mean titer: 3.92 log10/g lung

## NC(=O)CCN(CCC(N)=O)S(=O)(=O)c1cccc(Nc2nc(Cl)nc(Nc3ccc(/C=C/c4ccc(Nc5nc(Cl)nc(Nc6cccc(S(=O)(=O)N(CCC(N)=O)CCC(N)=O)c6)n5)cc4S(=O)(=O)O)c(S(=O)(=O)O)c3)n2)c1 [Example 8, 4,4'-Bis[4-chloro-6-[3-aminophenyl-N,N-bis(2-carbamoylethyl)sulfonylimino]-1,3,5-triazin-2-ylamino]-stilbene-2,2'-disulphonic acid, disodium salt]
RSV (A2) [1]; HF cells, read-out: IC50 in growth inhibition RSV/HF
  IC50: > 50 µg/mL
RSV (A2) [1]; vero cells, read-out: IC50 in growth inhibition RSV/VERO
  IC50: > 50 µg/mL
CMV (Ad169) [7]
  IC50: > 50 µg/mL

## NC(=O)c1ncn([C@@H]2O[C@H](CO)[C@@H](O)[C@H]2O)n1 [Ribavirin, reference compound]
RSV A2; rat, in vivo
  Fold red.: 0.8 log10
  Mean titer: 3.3 log10/g lung
